In ChEMBL document CHEMBL1155668, “A new depsipeptide from the sacoglossan mollusk Elysia ornata and the green alga Bryopsis species” (J Nat Prod, 2000):
Calls of active or inactive are those of the source.

Legend:
Assay type in all cases: functional, cell-based
HT-29 = experiment: Growth inhibition of human HT29 cells at 10 ug/mL
MEL28 = experiment: Growth inhibition of human MEL28 cells at 10 ug/mL
P388 = experiment: Growth inhibition of mouse P388 cells at 10 ug/mL
A549 = experiment: Growth inhibition of human A549 cells at 10 ug/mL

Measured: Activity

CC[C@H](C)[C@@H]1NC(=O)[C@H]([C@@H](C)O)NC(=O)[C@@H](Cc2c[nH]c3ccccc23)NC(=O)[C@@H](Cc2ccc(O)cc2)NC(=O)[C@@H](NC(=O)CNC(=O)CCCC(C)C)[C@@H](C)OC(=O)[C@H](C(C)C)NC1=O
inactive: all assays above
